This note sets out measurements from ChEMBL document CHEMBL1255366, “First report of cfr-mediated resistance to linezolid in human staphylococcal clinical isolates recovered in the United States” (2008).

Common to all, as to format: functional
Assay [1] has as its system Staphylococcus aureus. As to the kind of experiment: Antimicrobial activity against linezolid-resistant Staphylococcus aureus isolate 004-737X expressing cfr and ermA gene isolated from paraplegic patient by broth microdilution method. (In broth dilution the organism is exposed to a series of concentrations in liquid medium.)
In assay [2] the test system is Staphylococcus epidermidis. As to the kind of experiment: Antimicrobial activity against Staphylococcus epidermidis isolate 426-3147L expressing cfr gene by broth microdilution CLSI method.
In assay [3] the test system is Staphylococcus epidermidis. Briefly: Antimicrobial activity against Staphylococcus epidermidis isolate 426-3147L expressing cfr gene by disk diffusion method. Background: A growth-free zone around the sample is the usual read-out of agar diffusion tests.
Assay [4] concerns Staphylococcus aureus. As to the kind of experiment: Antimicrobial activity against linezolid-resistant Staphylococcus aureus isolate 004-737X expressing cfr and ermA gene isolated from paraplegic patient by Etest method.
The subject of assay [5] is Staphylococcus epidermidis. As to the kind of experiment: Antimicrobial activity against Staphylococcus epidermidis isolate 426-3147L expressing cfr gene by Etest method.
The subject of assay [6] is Staphylococcus aureus. Briefly: Antimicrobial activity against linezolid-resistant Staphylococcus aureus isolate 004-737X expressing cfr and ermA gene isolated from paraplegic patient by disk diffusion method.

Molecules are shown by their SMILES. Values after ≈ are worked out from the molar mass of the structure shown. Some results are limits rather than exact numbers.

In the case of `O=C(N[C@H](CO)[C@H](O)c1ccc([N+](=O)[O-])cc1)C(Cl)Cl` [CHLORAMPHENICOL], the MIC (with Staphylococcus aureus [1]; in assay [2]) was more than 256 µg/mL throughout.

Molecule `O=C(O)c1cn(C2CC2)c2cc(N3CCNCC3)c(F)cc2c1=O` [CIPROFLOXACIN] returned an MIC in the assay with Staphylococcus aureus [1] of more than 32 µg/mL.

In the case of `CCC[C@@H]1C[C@@H](C(=O)N[C@@H]([C@H]2O[C@H](SC)[C@H](O)[C@@H](O)[C@H]2O)[C@H](C)Cl)N(C)C1` [CLINDAMYCIN], the MIC (against Staphylococcus aureus [1]; in assay [2]) was more than 256 µg/mL in each case.

`CC[C@H]1OC(=O)[C@H](C)[C@@H](O[C@H]2C[C@@](C)(OC)[C@@H](O)[C@H](C)O2)[C@H](C)[C@@H](O[C@@H]2O[C@H](C)C[C@H](N(C)C)[C@H]2O)[C@](C)(O)C[C@@H](C)C(=O)[C@H](C)[C@@H](O)[C@]1(C)O` [ERYTHROMYCIN]: the minimal inhibitory concentration (MIC) is more than 256 µg/mL in the assay with Staphylococcus aureus [1] and more than 4 µg/mL in assay [2].

Take `CC(=O)NC[C@H]1CN(c2ccc(N3CCOCC3)c(F)c2)C(=O)O1` [LINEZOLID]: the entries for the “diameter of the inhibition zone (DIZ)” value (in assay [3]; in the assay with Staphylococcus aureus [6]) were 6 mm and 19 mm, respectively. Further, the MIC was 8 µg/mL (≈ 23.7 µM) against Staphylococcus aureus [4], more than 256 µg/mL in assay [5], 8 µg/mL (≈ 23.7 µM) with Staphylococcus aureus [1] and more than 256 µg/mL in assay [2].

`C/C(=C\C(=O)OCCCCCCCCC(=O)O)C[C@@H]1OC[C@H](C[C@@H]2O[C@H]2[C@@H](C)[C@H](C)O)[C@@H](O)[C@H]1O` [MUPIROCIN]: the MIC in the assay with Staphylococcus aureus [1] came to 0.25 µg/mL (≈ 0.499 µM); in assay [2], 64 µg/mL (≈ 128 µM).

Take `Cc1onc(-c2ccccc2)c1C(=O)N[C@@H]1C(=O)N2[C@@H]1SC(C)(C)[C@@H]2C(=O)O` [OXACILLIN]: the MIC (with Staphylococcus aureus [1]; in assay [2]) was more than 2 µg/mL in each case.

On to `C=C[C@]1(C)C[C@@H](OC(=O)CS[C@@H]2C[C@H]3CC[C@@H](C2)N3C)[C@]2(C)[C@H](C)CC[C@]3(CCC(=O)[C@H]32)[C@@H](C)[C@@H]1O` [RETAPAMULIN], for which the MIC is 32 µg/mL (≈ 61.8 µM) against Staphylococcus aureus [1] and more than 32 µg/mL in assay [2].

Take `CN(C)[C@@H]1C(O)=C(C(N)=O)C(=O)[C@@]2(O)C(O)=C3C(=O)c4c(O)cccc4[C@@](C)(O)[C@H]3C[C@@H]12` [TETRACYCLINE]: the MIC (in the assay on Staphylococcus aureus [1]; in assay [2]) was more than 8 µg/mL in each case.

Broadly, the MIC is the smallest concentration in the dilution series that meets the test's criterion for growth inhibition. Low readings indicate a more susceptible organism, high ones a less susceptible organism.
